The values that follow come from US8431715B2, “Thiazole compound (as PPARδ) ligand and pharmaceutical, cosmetic and health food comprised thereof” (Seoul National University Industry Foundation, priority 2007, dated 2013).

SMILES strings stand for the structures. Where two headings read alike, the source gives them in different places.

By EC50 is commonly meant the concentration giving half of the maximal effect.

Data set [1] relates to C57BL/6 mice. Kind of data set: Obesity inhibitory effect, high-fat feed. It counts as in vivo. To be noted: 10 mg/Kg/day oral, 35% fat feed for 35 days; vehicle 58.9%. The method, then:
An animal test using mice was performed to confirm the in vivo effect of the compound of the present invention. C57BL/6 (SLC Co.) mice at 14 weeks were used. To induce obesity, feeds containing 35% fat were given.

Data set [2] has as its system C57BL/6 mice. Kind of data set: Hyperlipidemia improving effect, blood HDL level. To be noted: 10 mg/kg/day oral, high fat feeds, 6 weeks, serum. The class given is in vivo. The method, then: In vivo animal test using C57BL/6 (SLC Co.) mice at 6 weeks was performed to confirm the hyperlipidemia improving effect of the compound of the present invention. […] 6 weeks later, blood was taken from orbital veins. Serum was separated and blood HDL level was measured by biochemical method.

Data set [3] relates to mice. Kind of data set: GTT (glucose tolerance test), diabetes improving effect. It counts as in vivo. To be noted: glucose 1.5 g/Kg intra-abdominal, oral pre-treatment 78 days. The procedure: GTT (glucose tolerance test) was performed to confirm the diabetes improving effect of the compound of the present invention. Glucose (1.5 g/Kg) was intra-abdominally administered to the mice pre-treated orally with samples for 78 days. Blood glucose was measured every hour. Fasting blood glucose was lower in the group treated with the compound of the present invention than in the group treated with vehicle or GW501516.

The target of data set [4] is T1, PPARδ (Homo sapiens, UniProt Q03181).
T1 sequence (Q03181 1-441): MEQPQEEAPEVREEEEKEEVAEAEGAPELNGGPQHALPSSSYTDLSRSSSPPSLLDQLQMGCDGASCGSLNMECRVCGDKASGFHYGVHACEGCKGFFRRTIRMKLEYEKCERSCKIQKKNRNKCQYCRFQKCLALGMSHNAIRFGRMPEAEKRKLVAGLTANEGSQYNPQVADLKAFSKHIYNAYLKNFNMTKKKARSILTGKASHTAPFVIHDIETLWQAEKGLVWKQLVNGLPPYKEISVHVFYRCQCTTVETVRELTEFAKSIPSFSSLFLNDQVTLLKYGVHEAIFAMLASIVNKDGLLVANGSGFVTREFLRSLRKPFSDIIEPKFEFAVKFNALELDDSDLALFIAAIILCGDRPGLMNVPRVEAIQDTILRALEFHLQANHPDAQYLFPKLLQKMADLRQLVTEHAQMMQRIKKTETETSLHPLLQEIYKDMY
As to conditions: literature; cited from earlier work.

For data set [5], the target named is T2, PPARγ (Homo sapiens, UniProt P37231).
T2 construct: Full length PPARs plasmid DNA, reporter DNA confirming PPARs activity owing to its luciferase activity; expressed in transfected cells; host or cells: CV-1 cells
T2 sequence (P37231 1-505): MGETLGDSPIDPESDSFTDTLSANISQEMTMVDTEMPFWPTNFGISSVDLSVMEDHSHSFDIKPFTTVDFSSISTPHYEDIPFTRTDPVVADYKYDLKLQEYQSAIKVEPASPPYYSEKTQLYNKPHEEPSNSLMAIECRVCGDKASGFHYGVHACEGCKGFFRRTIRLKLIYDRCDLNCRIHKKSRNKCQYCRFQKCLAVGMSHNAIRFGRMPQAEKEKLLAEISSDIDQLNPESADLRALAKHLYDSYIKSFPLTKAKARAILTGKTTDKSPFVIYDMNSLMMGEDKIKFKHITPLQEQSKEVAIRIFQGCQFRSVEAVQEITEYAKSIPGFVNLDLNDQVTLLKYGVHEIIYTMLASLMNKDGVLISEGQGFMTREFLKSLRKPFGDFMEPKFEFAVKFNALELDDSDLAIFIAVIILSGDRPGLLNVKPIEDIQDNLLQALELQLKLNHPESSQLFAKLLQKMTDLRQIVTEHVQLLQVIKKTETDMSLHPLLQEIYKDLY
Kind of data set: Transfection assay (luciferase reporter) in CV-1 cells, PPARγ. The class given is cell-based. As to conditions: 24 hours treatment. The method, then: (§1) The PPARδ activities of the R-form compound represented by formula 1 of the present invention and the S-form compound represented by formula 2 were measured by transfection assay. In addition, the selectivity to PPAR subtypes, PPARα and PPARγ, was examined. Cytotoxicity was tested by MTT assay and in vivo activity and toxicity was investigated by animal experiment using mice.
(§2) CV-1 cells were used in this assay. The cells were inoculated in a 96-well plate containing DMEM supplemented with 10% FBS, DBS (delipidated) and 1% penicillin/streptomycin and cultured in a 37 °C, 5% CO2 incubator. The experiment was performed according to the steps of inoculation, transfection, sample treatment and confirmation. Particularly, CV-1 cells were inoculated in a 96 well-plate (5000 cells/well), followed by transfection 24 hours later. Full length PPARs plasmid DNA, reporter DNA confirming PPARs activity owing to its luciferase activity, β-galactosidase DNA providing information on transfection efficiency, and transfection reagent were used for the transfection. The compounds of formula 1 and formula 2 were dissolved in dimethylsulfoxide (DMSO), which were treated to the cells via media at different concentrations. […] Luciferase activity and β-galactosidaseactivity were measured with Luminometer and a microplate reader. […] A graph was made with those values and EC50 was calculated.

Data set [6] deals with T3, PPARα (Homo sapiens, UniProt Q07869).
T3 construct: Full length PPARs plasmid DNA, reporter DNA confirming PPARs activity owing to its luciferase activity; expressed in transfected cells; host or cells: CV-1 cells
T3 sequence (Q07869 1-468): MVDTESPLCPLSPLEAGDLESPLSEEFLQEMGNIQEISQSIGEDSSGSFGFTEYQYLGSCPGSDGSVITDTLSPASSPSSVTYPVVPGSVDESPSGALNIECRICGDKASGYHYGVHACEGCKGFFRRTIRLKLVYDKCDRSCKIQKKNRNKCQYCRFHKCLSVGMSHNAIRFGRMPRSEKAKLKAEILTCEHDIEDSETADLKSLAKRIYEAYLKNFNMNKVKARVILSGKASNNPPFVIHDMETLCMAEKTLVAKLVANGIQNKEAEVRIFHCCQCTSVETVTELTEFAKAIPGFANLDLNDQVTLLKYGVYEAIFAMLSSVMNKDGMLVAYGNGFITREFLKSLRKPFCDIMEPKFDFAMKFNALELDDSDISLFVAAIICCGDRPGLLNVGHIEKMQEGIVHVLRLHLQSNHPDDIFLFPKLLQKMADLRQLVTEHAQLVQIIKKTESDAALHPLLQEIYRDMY
Kind of data set: Transfection assay (luciferase reporter) in CV-1 cells, PPARα. The class given is cell-based. To be noted: 24 hours treatment. The method, then: as §1, §2
On the technique in general: In a reporter assay the amount or activity of a reporter protein is the signal.

Data set [7] has as its target T1, PPARδ. Kind of data set: Transfection assay (luciferase reporter) in CV-1 cells, PPARδ. It counts as cell-based. Details: Full length PPARs plasmid DNA, reporter DNA confirming PPARs activity owing to its luciferase activity; expressed in transfected cells; host or cells: CV-1 cells. To be noted: CV-1 cells, 24 hours treatment. The procedure: as §1
CV-1 cells were used in this assay. The cells were inoculated in a 96-well plate containing DMEM supplemented with 10% FBS, DBS (delipidated) and 1% penicillin/streptomycin and cultured in a 37 °C, 5% CO2 incubator. The experiment was performed according to the steps of inoculation, transfection, sample treatment and confirmation. Particularly, CV-1 cells were inoculated in a 96 well-plate (5000 cells/well), followed by transfection 24 hours later. Full length PPARs plasmid DNA, reporter DNA confirming PPARs activity owing to its luciferase activity, β-galactosidase DNA providing information on transfection efficiency, and transfection reagent were used for the transfection. The compounds of formula 1 and formula 2 were dissolved in dimethylsulfoxide (DMSO), which were treated to the cells via media at different concentrations. After culturing the cells in the incubator for 24 hours, the cells were lysed by using lysis buffer. Luciferase activity and β-galactosidaseactivity were measured with Luminometer and a microplate reader. The obtained values of luciferase were modified by the values of β-galactosidase. A graph was made with those values and EC50 was calculated.

Data set [8] has as its system CV-1 cells. Briefly: MTT assay, cytotoxicity. The class given is cell-based. As to conditions: 24 hours, even at the concentration of 100,000 times the EC50 value. The procedure:
MTT assay was performed to test cytotoxicity of the compounds of the present invention. MTT is a yellow substance soluble in water, but when it is introduced into a living cell, it turns into a purple insoluble crystal by dehydrogenase in mitochondria. Cytotoxicity can be confirmed by measuring OD550 after dissolving MTT in dimethylsulfoxide. The experiment was performed as follows.
CV-1 cells were inoculated in a 96-well plate (5000 cells/well). The cells were cultured in a 37[…] 5% CO2 incubator for 24 hours, and treated with the compounds of formula 1 and formula 2 at different concentrations. Then, the cells were cultured for 24 hours again, to which MTT reagent was added. After culturing for 15 minutes, the generated purple crystals were dissolved in dimethylsulfoxide. Optical density was measured with a microplate reader to confirm cytotoxicity.

As for `Cc1cc(SCc2sc(-c3ccc(C(F)(F)F)cc3)nc2C)ccc1OCC(=O)O` [GW501516, [2-methyl-4-[[[4-methyl-2-[4-(trifluoromethyl)phenyl]-1,3-thiazol-5-yl]methyl]sulfanyl]phenoxy]acetic acid, reference compound], in data set [1], the weight increase worked out at 26.5%. The “HDL level increase compared with the control” value in data set [2] was 36.3%. Further, in data set [3], the “blood glucose compared with vehicle” value is “lower blood glucose than the vehicle treated group” and the “recovery of blood glucose level to normal” value was “not recovered to normal”.
For the molecule `CCCc1c(OCCCOc2ccc(OCC(=O)O)cc2)ccc(C(C)=O)c1O` [L-165041], in data set [4], the 50% effective concentration (EC50) was 530 nM and the “selectivity to hPPARδ over PPARα or PPARγ” value is listed as 10 times.
Turning to `Cc1cc(S[C@@H](Cc2ccccc2)c2sc(-c3ccc(C(F)(F)F)cc3)nc2C)ccc1OCC(=O)O` [formula 2], the “EC50 PPARγ” value in data set [5] is “ia”. The “EC50 PPARα” value in data set [6] is given as “ia”. The EC50 in data set [7] amounted to 5.1 nM. For the same molecule, in data set [8], the cytotoxicity result is given as “not to have cytotoxicity”.
